Several values for one entry are separate records, joined by “and”; a condition that tells them apart may be missing. Equal entries are not always repeated.
Tests used:
[1] = Solubility of alkanediols in water; format: physicochemical; details: visual assessment at ambient temperature after 24 h storage at 5° C.
Description: The water solubility of a substance is the saturation mass concentration of the substance in water at a given temperature. The determination of the solubility in water relates to essentially pure substances which are stable in water and not volatile. The determination of the water solubility of the alkanediols is further described in the following Example 7.
For the determination of the maximum water solubility of an alkanediol. water and different concentrations of the respective alkanediol were blended by stirring. […] The determination of whether the alkanediol has dissolved in water is based entirely on visual observation.

[2] = test system: reactive oxygen species (ROS) on monolayer cells; assay: DCF assay on monolayer cells (2D); format: cell-based; details: 300 μM H2O2, Untreated = 100
Procedure: A dichlorofluorescein test (DCF) assay was performed in order to determine the amount of reactive oxygen species (ROS) on monolayer cells with different test samples as described below.
DCF assay—assay principle (2D): One procedure to quantify intracellular radicals in a cell model is by using the dichlorofluorescein (DCF) assay. […] By intracellular esterases and oxidation, the nonfluorescent H2DCFDA is converted to the highly fluorescent 2′,7′-dichlorofluorescein (DCF). The nonfluorescent fluorescein (2′,7′-dichlorofluorescein diacetate (DCFH-DA)) passes the cell membranes. In the cytoplasm, it is cleaved by intracellular esterases and cannot leave the cell in this form. The oxidation by intracellularly existing ROS (reactive oxygen species) modifies the molecule so that will become DCF and emits fluorescence. ROS stimulation is done by exposure to 300 μM H2O2 for 1 h.
The determination of the anti-oxidative capacity is performed in 96-well microplates from Nunc (Wiesbaden, Germany) and with the microplate reader “Spark” from Tecan (Crailsheim, Germany). Cells are seeded in a black 96 well microplate with transparent bottom and incubated at 37° C. After 24 h the supernatant is decanted and fresh media with 0.1% FBS is added. Further 24 hours later the supernatant is decanted again and the test samples are added and incubated for 24 h. As a positive control Trolox is always co-tested. 300 μM H2O2 is used as ROS source (1 h exposure) The emitted fluorescence is measured from bottom of well at EX/EM 485/528 nm.
The antioxidative capacity is expressed as relative reduction of the stimulated control, which can be determined by rule of proportion in combination with the control.

[3] = Oxipres test (induction period, product protection); format: physicochemical; details: for antioxidative boosting (prolonged induction time, less rancidity and reduced acid value), in words: alkanediol in combination with antioxidant (tocopherol) in sunflower oil
Procedure: To evaluate the influence of 1,2-alkanediols or of 2,3-alkanediols on the antioxidative capacity of antioxidants, two different tests were performed: • (1) Oxipres treatment to simulate product protection; and • (2) Evaluation of reactive oxygen species (ROS) for skin protection.
The following tests were performed with sunflower oil +/− antioxidant and +/− alkanediols. […] Treating it with heat and oxygen triggers and accelerates oxidation easily.
An Oxipres test was performed in order to evaluate the antioxidative capacity of different test samples as described below.
Test procedure: For the evaluation of the antioxidative capacity of the above-described samples, an Oxipres test was conducted. The Oxipres method is bases on oxygen consumption at high temperatures and pressures and allows the determination of oxidative resistance (shelf life) of e.g. oils. The test runs under elevated pressure and temperature, where the process is accelerated. In the Oxipres test the sample is placed inside a hermetically closed iron vessel that is subjected to high oxygen pressures and temperatures of 90 to 120° C. […] The consumption of oxygen results in a pressure drop in the vessel during the test. Higher decrease of pressure indicates more consumption of oxygen and higher oxidation of the test product. Oils with a high degree of unsaturation are most susceptible to autoxidation.
In the test, the antioxidants are oxidized preferentially before the oxidizable fat or oil is oxidized. Thus, the antioxidants protect the fat or oil against oxidation. After this there is a sudden and large consumption of oxygen and the fat becomes rancid. This can be defined by the induction period (IP) in hours. A lower IP correlates with a faster oxidation.
Equipment: The tests were performed with an Oxipres device ex Mikrolab. The instrument is a modification of the bomb method (ASTM D941), which is based on oxidation with oxygen.

[4] = test system: IL-8 produced and secreted by HaCaT cells; assay: Interleukin 8 (IL-8) ELISA; format: cell-based, human; details: IL 1-alpha stimulated
Procedure: Interleukin 8 (IL-8) is increased by various kinds of stress including UV and oxidant stress, which thereby cause the recruitment of inflammatory cells and induces further increase in oxidant stress mediators, making it a key parameter in localized inflammation.
An IL-8 ELISA (enzyme lined immunosorbance assay) was performed in order to determine IL-8 produced and secreted by cells from the cell supernatant utilizing antibodies detecting the IL-8.
Experimental procedure: HaCaT cells (spontaneously transformed aneuploid immortal keratinocyte cell line from adult human skin) were seeded in a black 96 well microplate with transparent bottom and incubated at 37° C. After 24 hours the supernatant is decanted and the test samples (100 μl/well) are added and incubated for 24 hours at 37° C. Then IL 1-alpha (1 ng/ml per 100 μl/well) was added as stimulant. Then the medium was changed (100 μl/well) and incubated at 37° C. After 4 h a 70 μl sample was recovered from the cell supernatant. Thereafter, an IL-8 ELISA is carried out with the cell supernatant sample.
The lower the IL-8 concentration the better the […] effect of the antioxidant of the sample.

[5] = test system: reactive oxygen species (ROS) on ex vivo skin; assay: DCF assay on ex vivo skin biopsies, aqueous/alcoholic (ethanolic) test samples; format: cell-based; details: only the vehicle and the alkanediol, no antioxidant
Procedure: A dichlorofluorescein test (DCF) assay was performed in order to determine the amount of reactive oxygen species (ROS) on ex vivo skin treated with different test samples in a lipophilic or an aqueous/alcoholic system as described below.
DCF assay—assay principle: Ex vivo skin was incubated with 2′,7′-dichlorodihydrofluorescein diacetate at 37° C., 5% CO2. After PBS washing, samples were exposed or not to cumene hydroperoxide. Immediately after exposure, ex vivo skin samples were frozen in liquid nitrogen and 5 μm cryostat sections were made and fixed with acetone to allow the visualisation of fluorescence generated by ROS in cells of the reconstructed skins. […] Green fluorescence was quantified in ex vivo skin using ImageJ software. The depth of immunostaining was measured as follows: green DCFH-DE positive cells were automatically detected using Histolab software and the distance between dermal epidermal junction and the deepest positive cells were measured in each condition. Means were compared using a student's test. […]
The image acquisition was performed by using Olympus BX51 microscope and Olympus DP70 camera. For each skin sample two skin sections have been taken and the related fluorescent images acquired and analyzed. Thus, for each test condition, 12 images have been acquired and analyzed (i.e. 12 data). The analysis of fluorescence has been performed within the dermis area. […]

[6] = in combination with Ascorbyl Palmitate in sunflower oil
[7] = in combination with Hydroxyacetophenone in sunflower oil

## CCCCC(O)CO (stereo not shown) [Hydrolite ® 6]
[1]
  Maximum solubility in water: 50 % by weight

## NCCC(=O)N[C@@H](Cc1cnc[nH]1)C(=O)O [Carnosine]
[2]; 10 mM
  Mean, ROS concentration (%): 96%

## CCCC(O)C(C)O (stereo not shown) [2,3-hexanediol]
[3]; sunflower oil, tocopherol series (samples 1-43), versus comparative samples of the series
  induction period, in words: prolonged induction periods

## CCCCCCC(O)CO (stereo not shown) [Hydrolite ® 8]
[1]
  Maximum solubility in water: 0.5 % by weight

## CC1=C(/C=C/C(C)=C/C=C/C(C)=C/C(=O)OCC(=O)C(C)(C)C)C(C)(C)CCC1 [Hydroxypinacolone Retinoate]
[2]; 5 μM + 500 μM
  Mean, ROS concentration (%): 53%

## CCCCCC(O)CO (stereo not shown) [1,2-heptanediol]
[2]; 500 μM
  Mean, ROS concentration (%): 112%
[1]
  Maximum solubility in water: 2.5 % by weight
[4]; 500 μM
  IL-8 concentration: 959.8 pg/mL and 959.85 pg/mL
[3]
  antioxidative boosting (prolonged induction time, less rancidity and reduced acid value), in words: distinguished efficacy for antioxidative boosting
[3]; [6]
  induction period, in words: remarkably prolonged induction periods
[3]; [7]
  induction period, in words: remarkably prolonged induction periods
[5]
  antioxidative efficacy, in words: do not have an antioxidative efficacy

## CCCCCCCC(O)CO (stereo not shown) [1,2-nonediol, 1,2-nonanediol]
[1]
  Maximum solubility in water: 0.1 % by weight
[3]
  antioxidative boosting (prolonged induction time, less rancidity and reduced acid value), in words: distinguished efficacy for antioxidative boosting

## CCCCCCCCC(O)CO (stereo not shown) [1,2-decanediol]
[3]
  antioxidative boosting (prolonged induction time, less rancidity and reduced acid value), in words: distinguished efficacy for antioxidative boosting

## N=C(N)NCCC[C@H](NC(=O)C[C@H](N)C(=O)O)C(=O)O [beta-aspartyl arginine]
[2]; 10000 μM
  Mean, ROS concentration (%): 103%

## Cc1c(C)c2c(c(C)c1O)CC[C@@](C)(CCC[C@H](C)CCC[C@H](C)CCCC(C)C)O2 [alpha-Tocopherol]
[2]; 50 μM
  Mean, ROS concentration (%): 45%
[2]; 100 μM
  Mean, ROS concentration (%): 58%

## CCCCCC(O)C(C)O (stereo not shown) [2,3-octanediol]
[2]; 500 μM
  Mean, ROS concentration (%): 98%
[1]
  Maximum solubility in water: 1.5 % by weight
[3]
  antioxidative boosting (prolonged induction time, less rancidity and reduced acid value), in words: distinguished efficacy for antioxidative boosting

## CCCCC(O)C(C)O (stereo not shown) [2,3-heptanediol]
[1]
  Maximum solubility in water: 3.6 % by weight
[3]; [6]
  induction period, in words: remarkably prolonged induction periods
[3]; [7]
  induction period, in words: remarkably prolonged induction periods
[5]
  antioxidative efficacy, in words: do not have an antioxidative efficacy

## CCCCCCC(O)C(C)O (stereo not shown) [2,3-nonanediol]
[1]
  Maximum solubility in water: 0.3 % by weight

## CC1=C(/C=C/C(C)=C/C=C/C(C)=C/CO)C(C)(C)CCC1 [all trans-Retinol, reference compound]
[2]; 50 μM
  Mean, ROS concentration (%): 100%
[4]; 50 μM
  IL-8 concentration: 670.8 pg/mL and 670.84 pg/mL
